Measured values reported in US10392368B2, “Pyrazolo and triazolo bicyclic compounds as JAK kinase inhibitors” (THERAVANCE BIOPHARMA R&D IP, LLC, priority 2017, dated 2019).

System: IL-2 stimulated pSTAT5 in PBMC CD4+ T cells
Test: Inhibition of IL-2 stimulated pSTAT5 in human PBMC CD4+ T cells
Assay type: cell-based
Details: flow cytometry
Protocol: The potency of test compounds for inhibition of interleukin-2 (IL-2) stimulated STAT5 phosphorylation was measured in human peripheral blood mononuclear cell (PBMC) CD4+ T cells using flow cytometry. Because IL-2 signals through JAK3, this assay provides a measure of JAK3 cellular potency in human primary cells.
Phosphorylated STAT5 was measured via flow cytometry by measuring pSTAT5 response in CD4+ T cells (Becton Disckinson, AlexaFluor 647 Mouse anti-Human STAT5 (pY694) and PE Mouse anti-Human CD4).
Human PBMCs were isolated from donors via Ficoll gradient and frozen at −80° C. Frozen PBMCs were thawed and cultured for one hour in a 37° C., 5% CO2 humidified incubator in RPMI (Life Technologies) supplemented with 10% Heat Inactivated Fetal Bovine Serum (FBS, Life Technologies), 2 mM Glutamax (Life Technologies), 25 mM HEPES (Life Technologies) and 1× Pen/Strep (Life Technologies). Cells were seeded into 2 ml deep well plates at 4e6 cells/ml (50 μl/well). […]
To determine the inhibitory potency of test compounds in response to IL-2, the median fluorescence intensity of pSTAT5 in CD4+ gated cells was measured in human PBMCs with a BD LSRII with analysis in FCS Express 6. IC50 values were determined from analysis of the inhibition curves of signal intensity vs compound concentration. Data are expressed as pIC50 (negative decadic logarithm IC50) values (mean±standard deviation).

SMILES | pIC50, inhibition of IL-2 stimulated pSTAT5, compared with assay 2
CN(C)C/C=C/C(=O)N1CCC(C)(Oc2cc(-c3ccc(O)cc3)cc3[nH]ncc23)CC1 [Compound 9, (E)-4-(dimethylamino)-1-(4-((6-(4-hydroxyphenyl)-1H-indazol-4-yl)oxy)-4-methylpiperidin-1-yl)but-2-en-1-one] | values very similar to the ones obtained in assay 2
CN(C)C/C=C/C(=O)N1CC(C#N)(COc2cc(-c3ccc(O)c(F)c3)cc3[nH]ncc23)C1 [Compound 8, (E)-1-(4-(dimethylamino)but-2-enoyl)-3-(((6-(3-fluoro-4-hydroxyphenyl)-1Hindazol-4-yl)oxy)methyl)azetidine-3-carbonitrile] | values very similar to the ones obtained in assay 2
